The text below walks through data of patent publication US20240124470A1, “FIVE-MEMBERED RING DERIVATIVE AND MEDICAL USE THEREOF” (SICHUAN HAISCO PHARMACEUTICAL CO., LTD., priority 2020, published 2024).

The nature of series [1]: Stability test in human liver microsomes. The format is in vitro ADME. The procedure:
7. Stability Test in Human Liver Microsomes At 37° C., 1 μM of the test compound was incubated with human liver microsomes (0.5 mg/mL) supplemented with NADPH regeneration system for 5, 10, 20, 30 and 60 minutes, and then LC-MS/MS method was used to detect the concentration of the test compound in the generated sample. The half-life (T1/2) and inherent clearance rate (CLint(mic)) of the compound in human liver microsome solution were obtained by calculating at the corresponding time points and the remaining percentage of the compound.

The target in a further series is T1, hERG potassium channel (Homo sapiens, UniProt Q12809).
T1 construct: expressed in transfected cells
T1 sequence (Q12809 whole entry): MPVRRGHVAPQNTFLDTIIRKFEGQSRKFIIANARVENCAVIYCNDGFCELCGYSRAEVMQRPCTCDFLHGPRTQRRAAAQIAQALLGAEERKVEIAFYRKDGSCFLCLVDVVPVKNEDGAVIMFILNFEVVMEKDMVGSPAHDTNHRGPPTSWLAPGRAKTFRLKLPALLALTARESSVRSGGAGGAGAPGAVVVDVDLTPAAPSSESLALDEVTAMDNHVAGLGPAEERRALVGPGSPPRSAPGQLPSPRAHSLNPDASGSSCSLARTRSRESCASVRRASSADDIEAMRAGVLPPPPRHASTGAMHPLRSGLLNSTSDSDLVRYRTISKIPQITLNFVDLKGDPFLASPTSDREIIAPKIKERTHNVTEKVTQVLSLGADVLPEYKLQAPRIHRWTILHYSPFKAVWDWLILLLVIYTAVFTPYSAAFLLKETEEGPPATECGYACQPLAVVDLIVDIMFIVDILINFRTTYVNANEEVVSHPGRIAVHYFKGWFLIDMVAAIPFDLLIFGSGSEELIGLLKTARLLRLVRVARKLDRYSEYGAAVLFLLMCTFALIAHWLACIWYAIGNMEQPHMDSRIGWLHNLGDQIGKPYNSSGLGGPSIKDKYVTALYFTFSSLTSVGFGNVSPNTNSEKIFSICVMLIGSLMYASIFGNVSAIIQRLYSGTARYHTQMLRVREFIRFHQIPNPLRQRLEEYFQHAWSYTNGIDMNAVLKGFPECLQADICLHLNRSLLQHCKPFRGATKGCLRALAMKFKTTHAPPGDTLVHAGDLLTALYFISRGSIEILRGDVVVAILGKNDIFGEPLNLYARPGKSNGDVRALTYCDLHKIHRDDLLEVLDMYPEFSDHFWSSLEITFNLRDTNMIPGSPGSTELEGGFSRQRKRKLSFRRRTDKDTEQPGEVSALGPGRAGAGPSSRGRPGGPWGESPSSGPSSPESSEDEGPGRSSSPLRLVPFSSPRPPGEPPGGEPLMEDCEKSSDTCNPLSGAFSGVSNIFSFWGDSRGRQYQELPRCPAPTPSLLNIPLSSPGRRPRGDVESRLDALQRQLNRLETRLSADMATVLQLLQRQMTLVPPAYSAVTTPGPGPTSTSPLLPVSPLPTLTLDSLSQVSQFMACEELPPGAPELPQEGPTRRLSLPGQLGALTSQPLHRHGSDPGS
Description: Effects on hERG potassium channels, manual whole cell patch-clamp in CHO cells. The format is cell-based. Conditions: hERG potassium current, room temperature. The text has this: 2. Effects of the Compounds on hERG Potassium Channels
Experimental platform: electrophysiological manual patch-clamp system
Cell line: Chinese hamster ovary (CHO) cells stably expressing hERG potassium ion channel
Experimental method: For CHO (Chinese Hamster Ovary) cells stably expressing hERG potassium channel, whole cell patch-clamp technique was used to recorded hERG potassium channel current at room temperature in this experiment. The glass microelectrode is made of a glass electrode blank (BF150-86-10, Sutter) by a puller. The tip resistance after filling the liquid in the electrode is about 2-5 MΩ. The glass microelectrode can be connected to the patch-clamp amplifier by inserting the glass microelectrode into an amplifier probe. The clamping voltage and data recording are controlled and recorded by the pClamp 10 software through a computer. The sampling frequency is 10 kHz, and the filtering frequency is 2 kHz. After the whole cell records were obtained, the cells were clamped at −80 mV, and the step voltage that induced the hERG potassium current (IhERG) was depolarized from −80 mV to +20 mV for 2 s, then repolarized to −50 mV, and returned to −80 mV after 1 s. This voltage stimulation was given every 10 s, and the administration process was started after the hERG potassium current was confirmed to be stable (at least 1 minute). The compound was administered for at least 1 minute at each test concentration, and at least 2 cells (n≥2) were tested at each concentration.
Data analysis processing was carried out by using pClamp 10, GraphPad Prism 5 and Excel software. The inhibition degree of hERG potassium current (peak value of hERG tail current induced at −50 mV) at different compound concentrations was calculated by the following formula: Inhibition %=[1−(I/Io)]×100%.
Among the formula, Inhibition % represents the percentage of inhibition of hERG potassium current by the compound, and I and Io represent the amplitude of hERG potassium current after and before dosing, respectively.
Compound IC50 was calculated using GraphPad Prism 5 software by fitting according to the following equation:
Y=Bottom+(Top−Bottom)/(1+10^((LogIC50−X)×HillSlope))
Among the equation, X represents the Log value of the tested concentration of the test sample, Y represents the inhibition percentage at the corresponding concentration, and Bottom and Top represent the minimum and maximum inhibition percentage, respectively.
(In general: hERG is a cardiac potassium channel; its block is linked to QT prolongation.)

Series [2] is described as follows: Stability test in mouse liver microsomes. Type of series: in vitro ADME. The procedure:
3. Stability Test in Mouse Liver Microsomes At 37° C., 1 μM of the test compound was incubated with mouse liver microsomes (0.5 mg/mL) supplemented with NADPH regeneration system for 5, 10, 20, 30 and 60 minutes, and then LC-MS/MS method was used to detect the concentration of the test compound in the generated sample. The half-life (T1/2) and inherent clearance rate (CLint(mic)) of the compound in mouse liver microsome solution were obtained by calculating at the corresponding time points and the remaining percentage of the compound.
(Liver microsomes are vesicles of endoplasmic reticulum, rich in cytochrome P450 enzymes.)

Series [3] in a line: Evaluation of pharmacokinetics in cynomolgus monkeys. The format is in vivo. Conditions: intravenous 2 mg/kg and intragastric 10 mg/kg. As for the experimental part:
Evaluation of Pharmacokinetics in Cynomolgus Monkeys
Male cynomolgus monkeys (raised in Suzhou LEOLAB Bio Tech. Co., Ltd.), weighing 3-5 kg, were fasted overnight (14-18 h), […]. On the day of the experiment, 6 male cynomolgus monkeys were divided into 2 groups, with 3 […] in each group. The test compound was administered intravenously and intragastrically at doses of 2 mg/kg and 10 mg/kg respectively. Before administration and 5 min, 15 min, 30 min, 1 h, 2 h, 4 h, 6 h, 8 h 10 h, 12 h and 24 h after administration, 1 ml of blood was collected via the limb vein, placed in an EDTAK2 centrifuge tube, and centrifuged at 6000 rpm at 4° C. for 5 min, and then the plasma was collected. The plasma sample was added to an acetonitrile solution containing an internal standard (dexamethasone, 500 ng/mL), vortexed and centrifuged at 10,000 rpm for 10 min, and the supernatant was taken for LC-MS/MS analysis. Pharmacokinetic parameters were calculated using the non-compartmental model in WinNonlin Version 8.0 (Pharsight, Mountain View, CA) pharmacokinetic software. Conclusion: The compounds of the present invention have good metabolic properties.

For a further series, the target named is T2, CYP2D6 (Homo sapiens, UniProt P10635).
T2 construct: pre-incubated with the human liver microsome solutions containing 5 enzyme mixed substrates; from tissue; host or cells: human liver microsomes
T2 sequence (P10635 whole entry): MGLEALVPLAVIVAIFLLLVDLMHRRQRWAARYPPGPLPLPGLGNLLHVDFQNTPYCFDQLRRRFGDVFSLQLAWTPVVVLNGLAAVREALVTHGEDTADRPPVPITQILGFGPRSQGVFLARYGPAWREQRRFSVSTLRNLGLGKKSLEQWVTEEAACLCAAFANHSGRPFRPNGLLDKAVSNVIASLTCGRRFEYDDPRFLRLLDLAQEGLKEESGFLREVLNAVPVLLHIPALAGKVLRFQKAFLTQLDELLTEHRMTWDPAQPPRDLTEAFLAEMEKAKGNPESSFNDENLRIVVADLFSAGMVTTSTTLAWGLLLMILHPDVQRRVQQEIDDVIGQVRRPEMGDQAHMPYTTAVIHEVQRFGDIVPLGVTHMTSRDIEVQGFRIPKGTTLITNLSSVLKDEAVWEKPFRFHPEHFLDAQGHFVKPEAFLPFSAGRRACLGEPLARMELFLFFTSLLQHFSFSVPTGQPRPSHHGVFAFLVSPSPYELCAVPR
Briefly: Cytochrome P450 isoenzyme inhibition test, human liver microsomes: CYP2D6. Type of series: in vitro ADME. Conditions: human liver microsomes 0.1 mg/mL; read-out: IC50, inhibitory activity on CYP2D6. The procedure: 9. Cytochrome P450 Isoenzyme Inhibition Test Experimental objective: The inhibitory effect of the test compound on the activity of human liver microsomal cytochrome P450 isoenzyme (CYP1A2, CYP2C19, CYP2D6 and CYP3A4) was determined. Experimental operation: The test compound at an incubation concentration of 0, 0.03, 0.1, 0.3, 1, 3, 10, 30 and 100 μM was pre-incubated with the human liver microsome solutions containing 5 enzyme mixed substrates (liver microsome concentration: 0.1 mg/mL) in a water bath at 37° C. for 10 min, respectively, and then a coenzyme factor (NADPH) was added to start the reaction. After incubation in a water bath at 37° C. for 10 min, the reaction was terminated by adding glacial acetonitrile solution containing an internal standard, shaken for 1 min, centrifuged at 4° C. and 10,000 rpm for 10 min, and the supernatant was taken for LC/MS/MS analysis. The amount of metabolites produced by each CYP enzyme substrate was detected. The activity of each CYP isoenzyme was reflected by the production rate of each metabolite. […]

Regarding `N#Cc1ccc(COc2cccc(-c3ccc(Cc4nc5sc(C(=O)O)cc5n4C[C@@H]4CCO4)c(F)c3)n2)c(F)c1` [Compound 6, (S)-2-(4-(6-((4-cyano-2-fluorobenzyl)oxy)pyridin-2-yl)-2-fluorobenzyl)-1-(oxetan-2-ylmethyl)-1H-thieno[2,3-d]imidazole-5-carboxylic acid], the half-life at 1 μM in series [1] (human liver microsomes 0.5 mg/mL, 1 μM compound, NADPH, 37° C.) is 9.23 h; in series [2] (mouse liver microsomes 0.5 mg/mL, 1 μM compound, NADPH, 37° C.), 4.93 h. The microsomal CLint at 1 μM in series [1] (human liver microsomes 0.5 mg/mL, 1 μM compound, NADPH, 37° C., read-out: CLint(mic)) worked out at 2.5 µL/min/mg; in series [2] (mouse liver microsomes 0.5 mg/mL, 1 μM compound, NADPH, 37° C., read-out: CLint(mic)), 4.69 µL/min/mg. For the same compound, the figures for the “T1/2 ratio of compound 6 to compound DZ-6” value in series [1] (human liver microsomes test (section 7)) and in series [2] (mouse liver microsomes) were “greater than 3” and “greater than 2”, respectively. In addition, the IC50 against hERG potassium channel was more than 40 µM; at CYP2D6 it was more than 50 µM. Also, in series [3], the “clearance rate in monkeys” value is listed as “low clearance rate”. In series [3], the half-life in monkeys result is given as “long half-life”.

One may read the half-life as the time needed for the level to fall by half in the phase considered. High values mean slow decline, low ones rapid decline. Broadly, the IC50 is the concentration at which inhibition is half-maximal.
